Test results from patent US6911318B2, “Bacterial transglycosylases: assays for monitoring the activity using Lipid II substrate analogs and methods for discovering new antibiotics” (The Trustees of Princeton University, priority 1999, dated 2005).

Legend:
[1] = test system: transglycosylases; assay: modified membrane assay of radiolabeled Lipid II polymerization; assay type: biochemical; details: increasing concentrations of ramoplanin; FIG. 9
Description: Ramoplanin (FIG. 8) is a cyclic glycolipodepsipeptide antibiotic that kills gram positive bacteria by inhibiting cell wall biosynthesis. Ramoplanin blocks the conversion of Lipid I to Lipid II, a reaction that is catalyzed by the intracellular GlcNAc transferase. MurG. It is proposed that ramoplanin inhibits MurG by complexing Lipid I, which prevents it from being utilized as a substrate. Unexpectedly ramoplanin is shown by this inventor to inhibit the polymerization of Lipid II; therefore another mechanism is discovered by which ramoplanin can kill bacterial cells through inhibition of the transglycosylation step of peptidoglycan synthesis. Using a synthetic analogue of Lipid II, the evidence is presented that enzyme inhibition by ramoplanin involves substrate binding. Unexpectedly, the ramoplanin complexes are found to self-associate to form observable fibrils. The mechanism of action of ramoplanin has been investigated in the past in permeabilized bacterial cells and membrane preparations by following the incorporation of radiolabel from a precursor into various intermediates along the pathway to peptidoglycan. […] The effect of ramoplanin on Lipid II polymerization is evaluated by monitoring the amount of radioactive peptidoglycan formed in the presence of increasing concentrations of ramoplanin. […]

[2] = NMR and CD titration of ramoplanin with compound 2; assay type: binding; details: NMR
Description: The ability of ramoplanin to interact with 2 is investigated by NMR (FIG. 10). Unexpectedly, titration of ramoplanin with compound 2 caused the ramoplanin signals to disappear. Resonances for free 2 began to appear at a 1:1 ramoplanin:2 ratio. The disappearance of the ramoplanin resonances connotes a change in relaxation properties consistent with the formation of a high molecular weight species. A striking increase in the viscosity of the ramoplanin samples is evident upon the addition of compound 2. In addition, electron micrographs of the ramoplanin complexes show long fibrils (not shown). Thus, ramoplanin undergoes a ligand-induced polymerization process in the presence of 2. Ligand-induced polymerization of ramoplanin complexes implies a conformational change in ramoplanin. Therefore, one would expect a significant change in the far UV CD spectrum of ramoplanin upon adding 2. In fact, the CD spectrum for ramoplanin changes dramatically upon titration with 2 (FIG. 11). The appearance of a minimum at ˜210 nm is consistent with a model in which assembly into fibrils is mediated by hydrogen bonds between amides in the ramoplanin complexes, and is all likelihood related to the unusual pattern of D and L amino acids in the molecule. […]

[3] = test system: transglycosylase present in bacterial membranes; assay: in vitro polymerization of biotinylated-[14C]-Lipid II by bacterial membrane protein, ascending chromatography; assay type: biochemical; details: 0.06 μg/ml Moenomycin, FIG. 7
Description: FIG. 7 discloses in vitro polymerization of biotinylated-[^14C]-Lipid II accomplished by incubation with bacterial membrane protein, and product is detected by ascending chromatography in isobutyric acid:1M NH4OH (5:3).
In FIG. 7, biotinylated Lipid II serves as a substrate for transglycosylase present in bacterial membranes. Control: incubation of bacterial membranes with biotinylated Lipid II, which is also labeled with [^14C] […] It is thus clear that any other bacterial cell wall inhibitor can be equally screened.

Ramoplanin
effect on Lipid II polymerization (radioactive peptidoglycan formed) [1]: blocks the polymerization of Lipid II
binding to Lipid II analogue [2]: binds to a synthetic analogue of Lipid II

moenomycin
formation of peptidoglycan from biotinylated [14C]-Lipid II [3]: inhibits formation of peptidoglycan
